From article PMC10127588 (mBio, 2023)
pKd: −log10 of the molar value. “Also recorded” adds a separate entry of the source. Read-outs that look alike come from different tables or passages of the source.

Tests used:
Mps1 [1] = molecular target: T1, Mps1 (Pyricularia oryzae, UniProt G4N374); type: biochemical, Magnaporthe oryzae
M. oryzae [2] = type: cell-based
Pmk1 = Pmk1 (Pyricularia oryzae, UniProt G4N0Z0); type: binding, Magnaporthe oryzae
Mps1 [3] = molecular target: T1, Mps1; assay: biochemical; type: binding, Magnaporthe oryzae
M. oryzae [4] = test system: M. oryzae; parameters: species or system Magnaporthe oryzae; conditions: in vivo
M. oryzae [5] = type: cell-based; remark: listed apart in the source
M. oryzae conidia [6] = type: cell-based, Magnaporthe oryzae
Mpk1 [7] = molecular target: T2, Mpk1 (Fusarium oxysporum, UniProt X0BN28); assay: biochemical; type: binding
M. oryzae [8] = test system: M. oryzae; parameters: species or system Magnaporthe oryzae; conditions: in vivo; remark: listed apart in the source
Mpk1 [9] = molecular target: T2, Mpk1; type: biochemical
M. oryzae conidia [10] = type: cell-based, Magnaporthe oryzae; remark: listed apart in the source
M. oryzae [11] = type: cell-based; remark: listed apart in the source
M. oryzae conidia [12] = conditions: cited from earlier work
Itk = conditions: read-out: affinity; cited from earlier work
Src = conditions: read-out: affinity; cited from earlier work

T1 sequence (G4N374 whole entry, looked up): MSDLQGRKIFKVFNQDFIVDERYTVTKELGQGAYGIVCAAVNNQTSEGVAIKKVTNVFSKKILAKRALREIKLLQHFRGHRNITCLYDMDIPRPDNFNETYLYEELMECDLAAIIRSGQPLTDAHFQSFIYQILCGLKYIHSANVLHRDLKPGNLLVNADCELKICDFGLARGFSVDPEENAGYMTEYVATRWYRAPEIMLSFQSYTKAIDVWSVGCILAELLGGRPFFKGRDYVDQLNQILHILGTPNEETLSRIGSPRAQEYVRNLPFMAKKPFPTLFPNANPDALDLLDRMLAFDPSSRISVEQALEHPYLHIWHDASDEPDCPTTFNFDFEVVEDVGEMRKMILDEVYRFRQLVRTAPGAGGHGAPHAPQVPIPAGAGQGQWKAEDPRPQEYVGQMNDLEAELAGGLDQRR
Sequence of Pmk1 (G4N0Z0 whole entry, looked up): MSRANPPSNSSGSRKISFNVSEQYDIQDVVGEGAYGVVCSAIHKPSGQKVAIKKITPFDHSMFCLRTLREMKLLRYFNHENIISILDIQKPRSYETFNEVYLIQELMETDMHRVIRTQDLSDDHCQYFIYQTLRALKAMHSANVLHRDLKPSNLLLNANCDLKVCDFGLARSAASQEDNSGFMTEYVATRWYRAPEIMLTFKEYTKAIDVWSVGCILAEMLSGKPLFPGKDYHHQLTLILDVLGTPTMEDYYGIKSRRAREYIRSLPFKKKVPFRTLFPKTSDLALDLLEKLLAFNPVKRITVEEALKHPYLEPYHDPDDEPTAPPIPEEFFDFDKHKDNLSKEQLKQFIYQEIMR

For CNC(=O)[C@H](Cc1c[nH]c2ccccc12)NC(=O)c1ccc2cncc(-c3cc(OC(F)(F)F)ccc3OC)c2n1 [A378-0], the “kinase activity of Mps1” value (Mps1 [1]) was “suppressed the kinase activity of Mps1”, the “sensitivity to lysing enzyme (cell wall integrity)” value (M. oryzae [2]) was “readily reduced to spheroplasts” and the “binding to Pmk1” value (Pmk1) was “nonspecific binding”. The pKd (Mps1 [3]) was 4.16, the “virulence on barley leaves” value (M. oryzae [4]) was “exhibits inhibition of M. oryzae virulence on barley leaves” and the “autolysis on the culture dish” value (M. oryzae [5]) was “progressive autolysis was observed”. The “germination and appressorium formation of conidia” value (M. oryzae conidia [6]) was “could not inhibit the germination and appressorium formation”, the pKd (Mpk1 [7]) was 4.15 and the “concentration at which conidia were completely nonpathogenic” value (M. oryzae [8]) was 150 µg/mL. For the same molecule, the “concentration from which inhibition of M. oryzae virulence is observed” value (M. oryzae [8]) was 50 µg/mL, the “kinase activity of Mpk1” value (Mpk1 [9]) was “can inhibit the kinase activity of Mpk1” and the “appressorium penetration (penetration peg formation)” value (M. oryzae conidia [10]) was “did not form a penetration peg”. The “conidiation reduced to” value (M. oryzae [11]) was “about 40%”.
In the case of CC(C)OC(=O)C(C(=O)OC(C)C)=C1SCCS1 [Isoprothiolane, diisopropyl 2-(1,3-dithiolan-2-ylidene)malonate], the “concentration that can inhibit appressorium penetration” value (M. oryzae conidia [12]) is given as 20 µg/mL.
For adenylyl imidodiphosphate [AMP-PNP], the pKd (Itk) is listed as 2.10, the pKd (Src) is listed as 2.60 and the “binding to Mps1” value (Mps1 [3]) is listed as “does not interact with Mps1; also recorded: no binding was detected”. For the same molecule, the pKd (Mps1 [3]; read-out: KD) was greater than 3.30.
